Results published in US20040198789A1, “Lercanidipine/ARB/diuretic therapeutic combinations” (Recordati Ireland Limited, priority 2003, published 2004).
Values joined by “and” are separate entries in the source; they are usually repeats but may differ in a detail not shown here. Identical values can stand only once.

Tests used:
[1] = test system: reperfusion-induced hypertension in uninephrectomized anesthetized rats; test: Model of acute angiotensin-mediated renal hypertension in anesthetized rats (SBP, DBP, HR); type: in vivo, rat
Description: Male Sprague-Dawley rats, weighing 250-300 g, were anaesthetized with pentobarbital sodium (35 mg/kg, i.p.) and placed on a thermic blanket. The temperature was maintained at 37° C. with a thermoregulator via a rectal probe. The animals were tracheotomized to facilitate spontaneous breathing. A polyethylene catheter was placed in the left jugular vein to allow for infusion of pentobarbital sodium to maintain anesthesia. The left femoral vein and artery were cannulated with polyethylene catheters to allow drugs administration and to monitor blood pressure, respectively.
Animals then underwent a left nephrectomy by excising the left kidney via a flank incision. The right kidney and renal vein, artery and ureter were then exposed via a right retroperitoneal incision, under a dissecting microscope. Silk threads were placed around both vessels and ureter. The cavity was then covered with Vaseline oil.
After 30-60 minutes of basal recordings of arterial blood pressure and heart rate the threads around the renal vessels and ureter were tied close to the renal hilum to induce complete renal ischemia of the right kidney. After 2 hours of ischemia, the threads were removed to allow renal reperfusion and urine output.
For irbesartan experiments and comparisons, control (vehicle) or drug (irbesartan (100 μg/kg), lercanidipine (7.5 μg/kg), or both lercanidipine (7.5 μg/kg) and irbesartan (100 μg/kg)) were administered intravenously at 5 min after reperfusion was begun.
Results were expressed as mean values ±S.E. (in the tables) and in percent change observed.
To evaluate the effects of drugs administration on blood pressure and heart rate within each group, two-way ANOVA and Dunnet's test were used (“within treatment”). To evaluate the statistical differences among the treatment groups, data are analyzed using a three-way ANOVA (analysis of variance) with repeated measures on factor time and pre-planned multiple comparisons. The analysis was performed using, for each treatment, delta values (log transformation). […] (“between treatments”).

[2] = test system: reperfusion-induced hypertension in uninephrectomized anesthetized rats; test: as above; type: in vivo, rat; remark: listed apart in the source
[3] = cited from earlier work
isolated rat aorta = conditions: in vitro; even after repeated wash-out during 6 hours; cited from earlier work
[4] = following oral administration; cited from earlier work
[5] = between treatments, three-way ANOVA on delta values, lercanidipine 7.5 μg/kg, irbesartan 100 μg/kg i.v.
[6] = between treatments, three-way ANOVA on delta values, lercanidipine 7.5 μg/kg, olmesartan free acid 10 μg/kg i.v.
[7] = between treatments, three-way ANOVA on delta values, lercanidipine 10 μg/kg, valsartan 30 μg/kg i.v.
[8] = lercanidipine 7.5 μg/kg i.v., n=6, time 0 min, basal, pre-drug
[9] = lercanidipine 7.5 μg/kg i.v., n=6, time 120 min, end of ischemia, pre-drug
[10] = lercanidipine 7.5 μg/kg i.v., n=6, time 130 min, 5 min after drug
[11] = lercanidipine 7.5 μg/kg i.v., n=6, time 135 min, 10 min after drug
[12] = lercanidipine 7.5 μg/kg i.v., n=6, time 150 min, 25 min after drug
[13] = lercanidipine 7.5 μg/kg i.v., n=6, time 165 min, 40 min after drug
[14] = lercanidipine 7.5 μg/kg i.v., n=6, time 180 min, 55 min after drug
[15] = lercanidipine 7.5 μg/kg i.v., n=6, time […], 5 min reperfusion, pre-drug
[16] = lercanidipine 10 μg/kg i.v., n=5, time 0 min, basal, pre-drug
[17] = lercanidipine 10 μg/kg i.v., n=5, time 120 min, end of ischemia, pre-drug
[18] = lercanidipine 10 μg/kg i.v., n=5, time 130 min, 5 min after drug
[19] = lercanidipine 10 μg/kg i.v., n=5, time 135 min, 10 min after drug
[20] = lercanidipine 10 μg/kg i.v., n=5, time 150 min, 25 min after drug
[21] = lercanidipine 10 μg/kg i.v., n=5, time 165 min, 40 min after drug
[22] = lercanidipine 10 μg/kg i.v., n=5, time 180 min, 55 min after drug
[23] = lercanidipine 10 μg/kg i.v., n=5, time […], 5 min reperfusion, pre-drug
[24] = within treatment vs […], lercanidipine 10 μg/kg or valsartan 30 μg/kg i.v.

## COC(=O)C1=C(C)NC(C)=C(C(=O)OC(C)(C)CN(C)CCC(c2ccccc2)c2ccccc2)C1c1cccc([N+](=O)[O-])c1 (stereo not drawn) [lercanidipine, methyl 1,1,N-trimethyl-N-(3,3-diphenylpropyl)-2-aminoethyl 1,4-dihydro-2,6-dimethyl-4-(3-nitrophenyl)pyridine-3,5-dicarboxylate]
[1]; [5]
  Diastolic blood pressure: general differences among groups: p vs Irbesartan: ns
  Diastolic blood pressure: general differences among groups: p vs Vehicle: p < 0.05
  Heart rate differences among groups: p vs Irbesartan: p < 0.001
  Heart rate differences among groups: p vs Vehicle: p < 0.01
  Systolic blood pressure differences among groups: p vs Irbesartan: ns
  Systolic blood pressure differences among groups: p vs Vehicle: ns
[1]; [6]
  Diastolic blood pressure differences among treatment groups: p vs Olmesartan: ns
  Diastolic blood pressure differences among treatment groups: p vs Vehicle: p < 0.05
  Heart rate differences among treatment groups: p vs Olmesartan: p < 0.001
  Heart rate differences among treatment groups: p vs Vehicle: p < 0.01
  Systolic blood pressure differences among treatment groups: p vs Olmesartan: ns
  Systolic blood pressure differences among treatment groups: p vs Vehicle: ns
[1]; [7]
  Diastolic blood pressure: general differences among groups: p vs Valsartan: ns
  Heart rate: general differences among groups: p vs Valsartan: p < 0.01
  Systolic blood pressure: general differences among groups: p vs Valsartan: ns
[1]; [8]
  DBP: 75.7 ± 1.7 mmHg
  HR: 383.3 ± 12.0 beats/min
  SBP: 120.7 ± 3.5 mmHg
[1]; [9]
  DBP: 63.3 ± 2.9 mmHg
  HR: 381.7 ± 7.5 beats/min
  SBP: 105.2 ± 5.3 mmHg
[1]; [10]
  HR: 434.2 ± 15.3 b beats/min
  SBP: 136.7 ± 7.4 mmHg
[1]; [11]
  HR: 426.7 ± 14.3 b beats/min
  SBP: 140.7 ± 7.1 mmHg and 140.7 ± 7.1b mmHg
[1]; [12]
  HR: 411.7 ± 12.8 b beats/min
  SBP: 143.2 ± 7.2 mmHg
[1]; [13]
  HR: 411.7 ± 15.6 b beats/min
  SBP: 144.5 ± 9.1 mmHg
[1]; [14]
  HR: 410.0 ± 18.3 b beats/min
  SBP: 136.8 ± 8.4 mmHg and 136.8 ± 8.4b mmHg
[1]; [15]
  DBP: 117.2 ± 4.4 mmHg
  HR: 346.7 ± 8.4 beats/min
  SBP: 160.7 ± 8.5 mmHg
[1]; lercanidipine 7.5 μg/kg, irbesartan 100 μg/kg i.v., alone or together
  effect on heart rate (in words): increase in heart rate
[1]; lercanidipine 7.5 μg/kg, irbesartan 100 μg/kg i.v., alone or together, 5 min after reperfusion
  effect on blood pressure (in words): statistically significant decrease in both systolic and diastolic blood pressure
[1]; lercanidipine 7.5 μg/kg, olmesartan free acid 10 μg/kg i.v., alone or together
  effect on heart rate (in words): increase in heart rate
[1]; [16]
  DBP: 69.8 ± 4.1 mmHg
  HR: 350.0 ± 3.2 beats/min
  SBP: 133.8 ± 6.1 mmHg
[1]; [17]
  DBP: 64.6 ± 4.5 mmHg
  HR: 350.0 ± 3.5 beats/min
  SBP: 134.8 ± 6.2 mmHg
[1]; [18]
  DBP: 77.4 ± 4.1 b mmHg
  HR: 434.0 ± 27.9 b beats/min
  SBP: 149.2 ± 5.4 mmHg
[1]; [19]
  DBP: 77.8 ± 3.2 b mmHg
  HR: 438.0 ± 22.2 b beats/min
  SBP: 145.4 ± 5.0 b mmHg
[1]; [20]
  DBP: 76.4 ± 7.2 b mmHg
  HR: 425.0 ± 14.7 b beats/min
  SBP: 143.8 ± 5.5 b mmHg
[1]; [21]
  DBP: 78.4 ± 8.4 b mmHg
  HR: 423.0 ± 15.1 b beats/min
  SBP: 138.2 ± 8.6 b mmHg
[1]; [22]
  DBP: 76.2 ± 7.3 b mmHg
  HR: 421.0 ± 14.7 b beats/min
  SBP: 138.8 ± 4.9 b mmHg
[1]; [23]
  DBP: 105.6 ± 5.0 mmHg
  HR: 345.0 ± 5.5 beats/min
  SBP: 167.6 ± 4.0 mmHg
[1]; within treatment vs […], lercanidipine 7.5 μg/kg or olmesartan free acid 10 μg/kg i.v.
  time of statistically significant decrease in diastolic blood pressure after administration: 5 to 55 min
[1]; [24]
  time of statistically significant decrease in systolic blood pressure after administration: 10 to 55 min
[2]; [7]
  Diastolic blood pressure: general differences among groups: p vs Vehicle: p < 0.01
  Heart rate: general differences among groups: p vs Vehicle: p < 0.05
  Systolic blood pressure: general differences among groups: p vs Vehicle: ns
[2]; lercanidipine 10 μg/kg, valsartan 30 μg/kg i.v., alone or together
  effect on heart rate (in words): positive chronotropic effect
[2]; [24]
  time of statistically significant decrease in diastolic blood pressure after administration: 5 to 55 min
[3]; hypertensive patients on lercanidipine
  tachycardia reported as a side effect, patients: 0-9%
[3]; patients administered lercanidipine
  heart palpitations, patients reporting: 0-9%
Isolated rat aorta
  isolated rat aorta response to high K+: attenuated
[4]
  time of peak serum/plasma concentration: 2 to 3 h
